The IC50 is the concentration needed to halve the response being measured.

Here are results for 31 compounds from US11802111B2, “Cyclobutyl amide monoacylglycerol lipase modulators” (Janssen Pharmaceutica NV, priority 2020, dated 2023).

Chain of human MGL from HeLa cells (Q99685 whole entry): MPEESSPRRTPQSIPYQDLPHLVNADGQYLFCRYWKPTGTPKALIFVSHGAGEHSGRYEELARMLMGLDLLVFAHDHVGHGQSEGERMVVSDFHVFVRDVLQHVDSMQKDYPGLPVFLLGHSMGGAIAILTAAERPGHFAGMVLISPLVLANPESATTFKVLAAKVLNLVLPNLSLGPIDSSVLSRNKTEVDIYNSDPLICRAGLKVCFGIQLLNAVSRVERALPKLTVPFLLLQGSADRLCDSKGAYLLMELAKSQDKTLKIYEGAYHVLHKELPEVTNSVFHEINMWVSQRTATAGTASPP

This assay has as its target human MGL from HeLa cells (Homo sapiens (Human), UniProt Q99685). Nature of the assay: MGL in vitro activity assay ([glycerol-1,3-3H]-oleoyl glycerol hydrolysis, activated carbon filtration). The assay is classed as biochemical. To be noted: 300 nM [Glycerol-1,3-3H]-oleoyl glycerol, one hour. In outline: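 Activity measured as tritium in the flow-through after activated carbon filtration of a 1 h reaction containing 300 nM 3H-oleoyl glycerol, compound and HeLa-derived human MGL. Compounds screened at 10 μM; IC50 series start at an empirically chosen highest concentration.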
For `Cn1ncc(C2CCC3(C2)CN(C(=O)[C@H]2C[C@@](C)(O)C2)C3)c1C(F)(F)F` (mixture of isomers) [Example 109, (rac)-((1s,3s)-3-Hydroxy-3-methylcyclobutyl)(6-(1-methyl-5-(trifluoromethyl)-1H-pyrazol-4-yl)-2-azaspiro[3.4]octan-2-yl)methanone], the IC50 turned out to be 899 nM.
`Cc1ccccc1CC1CC2(C1)CN(C(=O)[C@H]1C[C@@](C)(O)C1)C2` [Example 184, ((1s,3s)-3-Hydroxy-3-methylcyclobutyl)(6-(2-methylbenzyl)-2-azaspiro[3.3]heptan-2-yl)methanone] returned an IC50 of 14 nM.
The figure for `CC(C)c1ccc(C2CCC3(CC2)CN(C(=O)[C@H]2C[C@@](C)(O)C2)C3)cc1` [Example 130, ((1s,3s)-3-Hydroxy-3-methylcyclobutyl)(7-(4-isopropylphenyl)-2-azaspiro[3.5]nonan-2-yl)methanone] is 17 nM.
For `C[C@]1(O)C[C@@H](C(=O)N2CC3(CCC(Oc4cccc(C(F)(F)F)n4)CC3)C2)C1` [Example 421, ((1s,3s)-3-Hydroxy-3-methylcyclobutyl)(7-((6-(trifluoromethyl)pyridin-2-yl)oxy)-2-azaspiro[3.5]nonan-2-yl)methanone], the IC50 turned out to be 84 nM.
The figure for `CC(C)c1ccc(C2CCC3(C2)CN(C(=O)[C@H]2C[C@@](C)(O)C2)C3)cc1` (mixture of isomers) [Example 35, (rac)-((1s,3s)-3-Hydroxy-3-methylcyclobutyl)(6-(4-isopropylphenyl)-2-azaspiro[3.4]octan-2-yl)methanone] is 15 nM.
Take `Cc1ccc(Cl)c(OC2CCC3(CC2)CN(C(=O)[C@H]2C[C@@](C)(O)C2)C3)c1` [Example 410, (7-(2-Chloro-5-methylphenoxy)-2-azaspiro[3.5]nonan-2-yl)((1s,3s)-3-hydroxy-3-methylcyclobutyl)methanone]: the IC50 was 2.8 nM.
Take `Cn1ccc2ccc(C3CCC4(CC3)CN(C(=O)[C@H]3C[C@@](C)(O)C3)C4)nc21` [Example 384, ((1s,3s)-3-Hydroxy-3-methylcyclobutyl)(7-(1-methyl-1H-pyrrolo[2,3-b]pyridin-6-yl)-2-azaspiro[3.5]nonan-2-yl)methanone]: the IC50 was found to be 97 nM. Against the preceding compound, the IC50 is about 35-fold higher.
In the case of `CC(C)(C)c1cc(C2CCC3(CC2)CN(C(=O)[C@H]2C[C@@](C)(O)C2)C3)on1` [Example 382, (7-(3-(tert-Butyl)isoxazol-5-yl)-2-azaspiro[3.5]nonan-2-yl)((1s,3s)-3-hydroxy-3-methylcyclobutyl)methanone], it took 178 nM to reach half-maximal inhibition (IC50). This IC50 is about 1.8-fold higher than that of the compound before.
With `CC(C)c1cccc(C2CCC3(C2)CN(C(=O)[C@H]2C[C@@](C)(O)C2)C3)c1` (mixture of isomers) [Example 46, (rac)-((1s,3s)-3-Hydroxy-3-methylcyclobutyl)(6-(3-isopropylphenyl)-2-azaspiro[3.4]octan-2-yl)methanone], the IC50 is 13 nM.
The figure for `Cn1ncc2cc(C3CCC4(C3)CN(C(=O)[C@H]3C[C@@](C)(O)C3)C4)ccc21` (mixture of isomers) [Example 102, (rac)-((1s,3s)-3-Hydroxy-3-methylcyclobutyl)(6-(1-methyl-1H-indazol-5-yl)-2-azaspiro[3.4]octan-2-yl)methanone] is 301 nM.
The figure for `COc1ccc(C2CCC3(C2)CN(C(=O)[C@H]2C[C@@](C)(O)C2)C3)cc1C` (mixture of isomers) [Example 76, (rac)-((1s,3s)-3-Hydroxy-3-methylcyclobutyl)(6-(4-methoxy-3-methylphenyl)-2-azaspiro[3.4]octan-2-yl)methanone] is 51 nM.
`Cc1cccc(C2CCC3(CC2)CN(C(=O)[C@H]2C[C@@](C)(O)C2)C3)c1` [Example 137, ((1s,3s)-3-Hydroxy-3-methylcyclobutyl)(7-(m-tolyl)-2-azaspiro[3.5]nonan-2-yl)methanone] yielded an IC50 of 38 nM.
Next, `Cc1ccc(C(F)(F)F)cc1OC1CCC2(CC1)CN(C(=O)[C@H]1C[C@@](C)(O)C1)C2` [Example 416, ((1s,3s)-3-Hydroxy-3-methylcyclobutyl)(7-(2-methyl-5-(trifluoromethyl)phenoxy)-2-azaspiro[3.5]nonan-2-yl)methanone]: 1.9 nM.
Next, `Cn1cc(C2CCC3(C2)CN(C(=O)[C@H]2C[C@@](C)(O)C2)C3)cn1` (mixture of isomers) [Example 99, (rac)-((1s,3s)-3-Hydroxy-3-methylcyclobutyl)(6-(1-methyl-1H-pyrazol-4-yl)-2-azaspiro[3.4]octan-2-yl)methanone]: 5930 nM; `COc1cc(C2CCC3(C2)CN(C(=O)[C@H]2C[C@@](C)(O)C2)C3)ccc1C` (mixture of isomers) [Example 17, (rac)-((1s,3s)-3-Hydroxy-3-methylcyclobutyl)(6-(3-methoxy-4-methylphenyl)-2-azaspiro[3.4]octan-2-yl)methanone]: 46 nM; `Cc1cc(OC2CCC3(CC2)CN(C(=O)[C@H]2C[C@@](C)(O)C2)C3)ncc1C(F)(F)F` [Example 442, ((1s,3s)-3-Hydroxy-3-methylcyclobutyl)(7-((4-methyl-5-(trifluoromethyl)pyridin-2-yl)oxy)-2-azaspiro[3.5]nonan-2-yl)methanone]: 9.6 nM.
Next, `C[C@]1(O)C[C@@H](C(=O)N2CC3(CC[C@@H](c4cccc(C5CC5)c4)C3)C2)C1` (stereo in doubt) [Example 59, ((*R)-6-(3-Cyclopropylphenyl)-2-azaspiro[3.4]octan-2-yl)((1s,3*S)-3-hydroxy-3-methylcyclobutyl)methanone]: 37 nM; `Cc1c(F)cccc1C1CCC2(CC1)CN(C(=O)[C@H]1C[C@@](C)(O)C1)C2` [Example 359, (7-(3-Fluoro-2-methylphenyl)-2-azaspiro[3.5]nonan-2-yl)((1s,3s)-3-hydroxy-3-methylcyclobutyl)methanone]: 18 nM.
Compound `Cn1nc(CC2CC3(C2)CN(C(=O)[C@H]2C[C@@](C)(O)C2)C3)cc1C(F)(F)F` [Example 283, ((1s,3s)-3-Hydroxy-3-methylcyclobutyl)(6-((1-methyl-5-(trifluoromethyl)-1H-pyrazol-3-yl)methyl)-2-azaspiro[3.3]heptan-2-yl)methanone] showed an IC50 of 116 nM. This IC50 lies about 6.4-fold higher than the previous one.
Compound `COc1ccc(C2CCC3(CC2)CN(C(=O)[C@H]2C[C@@](C)(O)C2)C3)cc1C(F)(F)F` [Example 114, ((1s,3s)-3-Hydroxy-3-methylcyclobutyl)(7-(4-methoxy-3-(trifluoromethyl)phenyl)-2-azaspiro[3.5]nonan-2-yl)methanone] showed a half-maximal inhibitory concentration (IC50) of 65 nM.
The compound `Cc1cc(Cl)cnc1OC1CCC2(CC1)CN(C(=O)[C@H]1C[C@@](C)(O)C1)C2` [Example 437, (7-((5-Chloro-3-methylpyridin-2-yl)oxy)-2-azaspiro[3.5]nonan-2-yl)((1s,3s)-3-hydroxy-3-methylcyclobutyl)methanoneo] came in with an IC50 of 3.7 nM. Compared with the last compound, the IC50 is about 18-fold lower.
Next, `C[C@]1(O)C[C@@H](C(=O)N2CC3(CCC(Oc4ncc(C(F)(F)F)cc4F)CC3)C2)C1` [Example 457, (7-((3-Fluoro-5-(trifluoromethyl)pyridin-2-yl)oxy)-2-azaspiro[3.5]nonan-2-yl)((1s,3s)-3-hydroxy-3-methylcyclobutyl)methanone]: 13 nM; `Cn1ncc2c(C3CCC4(C3)CN(C(=O)[C@H]3C[C@@](C)(O)C3)C4)cccc21` (mixture of isomers) [Example 326, (rac)-((1s,3s)-3-Hydroxy-3-methylcyclobutyl)(6-(1-methyl-1H-indazol-4-yl)-2-azaspiro[3.4]octan-2-yl)methanone]: 185 nM; `COc1cc(OC2CCC3(CC2)CN(C(=O)[C@H]2C[C@@](C)(O)C2)C3)ncc1Cl` [Example 460, (7-((5-Chloro-4-methoxypyridin-2-yl)oxy)-2-azaspiro[3.5]nonan-2-yl)((1s,3s)-3-hydroxy-3-methylcyclobutyl)methanone]: 142 nM.
`C[C@]1(O)C[C@@H](C(=O)N2CC3(CC(Cn4c(C(F)(F)F)cc5cccnc54)C3)C2)C1` [Example 294, ((1s,3s)-3-Hydroxy-3-methylcyclobutyl)(6-((2-(trifluoromethyl)-1H-pyrrolo[2,3-b]pyridin-1-yl)methyl)-2-azaspiro[3.3]heptan-2-yl)methanone] had an IC50 of 10 nM.
The figure for `Cc1cc(C(F)(F)F)ccc1OC1CC2(C1)CN(C(=O)[C@H]1C[C@@](C)(O)C1)C2` [Example 249, ((1s,3s)-3-Hydroxy-3-methylcyclobutyl)(6-(2-methyl-4-(trifluoromethyl)phenoxy)-2-azaspiro[3.3]heptan-2-yl)methanone] is 20 nM; for `Cc1ccc(CC2CC3(C2)CN(C(=O)[C@H]2C[C@@](C)(O)C2)C3)cc1C(F)(F)F` [Example 189, ((1s,3s)-3-Hydroxy-3-methylcyclobutyl)(6-(4-methyl-3-(trifluoromethyl)benzyl)-2-azaspiro[3.3]heptan-2-yl)methanone] it is 3.5 nM.
Next, `COc1cc(C2CC2)cc(C2CCC3(CC2)CN(C(=O)[C@H]2C[C@@](C)(O)C2)C3)c1` [Example 141, (7-(3-Cyclopropyl-5-methoxyphenyl)-2-azaspiro[3.5]nonan-2-yl)((1s,3s)-3-hydroxy-3-methylcyclobutyl)methanone]: 20 nM.
The figure for `C[C@]1(O)C[C@@H](C(=O)N2CC3(CCC(Oc4ncc(C(F)(F)F)cn4)CC3)C2)C1` [Example 467, ((1s,3s)-3-Hydroxy-3-methylcyclobutyl)(7-((5-(trifluoromethyl)pyrimidin-2-yl)oxy)-2-azaspiro[3.5]nonan-2-yl)methanone] is 858 nM; for `CC(C)(C)c1cccc(C2CCC3(C2)CN(C(=O)[C@H]2C[C@@](C)(O)C2)C3)n1` (mixture of isomers) [Example 29, (rac)-(6-(6-(tert-Butyl)pyridin-2-yl)-2-azaspiro[3.4]octan-2-yl)((1s,3s)-3-hydroxy-3-methylcyclobutyl)methanone] it is 7.7 nM.
In the case of `COc1cc(C)nc(C2CCC3(CC2)CN(C(=O)[C@H]2C[C@@](C)(O)C2)C3)c1` [Example 375, ((1s,3s)-3-Hydroxy-3-methylcyclobutyl)(7-(4-methoxy-6-methylpyridin-2-yl)-2-azaspiro[3.5]nonan-2-yl)methanone], the midpoint of inhibition, the IC50, lay at 231 nM.
